This is an account of results in the supplement of paper PMC10307832.

What all share (experiment): relative viability (nuclei count vs DMSO), 5 days (fraction); higher = more cells survive
Compound in experiment [1]: CC1=CN2C(=O)C=C(N=C2C(=C1)C(C)NC3=CC=CC=C3)N4CCOCC4 [TGX 221] + Nc1ncn([C@H]2C[C@H](O)[C@@H](CO)O2)c(=O)n1 [Decitabine] (partner 2 µM)
The gist of the method:
(§1)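 Dosing by pin tool came one day after lung cancer cell lines were seeded in 1536-well plates, using either one drug or a fixed anchor-drug dose plus five library-drug doses (not always all listed) in √10 steps. After 5 days, nuclei were counted on 4× images. Relative viability is treated-well nuclei count divided by vehicle-well nuclei count, and values are medians of duplicate plates.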

Compound in experiment [2]: CC1=CN2C(=O)C=C(N=C2C(=C1)C(C)NC3=CC=CC=C3)N4CCOCC4 [TGX 221] + CC(=O)Nc1cccc(-n2c(=O)n(C3CC3)c(=O)c3c(Nc4ccc(I)cc4F)n(C)c(=O)c(C)c32)c1 [Trametinib] (partner 0.02 µM)
A digest of the protocol: as §1

Compound in experiment [3]: O=C(CCCCCCNC(=O)c1cnc(N(c2ccccc2)c2ccccc2)nc1)NO [Ricolinostat] + C[C@]1(O)C[C@@H](c2nc(-c3ccc4ccc(-c5ccccc5)nc4c3)c3c(N)nccn32)C1 [Linsitinib] (partner 1 µM)
A digest of the protocol:
as §1

Compound in experiment [4]: CC1=CN2C(=O)C=C(N=C2C(=C1)C(C)NC3=CC=CC=C3)N4CCOCC4 [TGX 221] + CCNC(=O)c1noc(-c2cc(C(C)C)c(O)cc2O)c1-c1ccc(CN2CCOCC2)cc1 [Luminespib] (partner 0.01 µM)
A digest of the protocol: as §1

For the cell line NCI-H1792, the relative viability in experiment [1] (first compound 0.08 µM) was determined as 0.522; in experiment [1] (first compound 0.253 µM) it was 0.479; in experiment [1] (first compound 0.8 µM) it was 0.549; in experiment [1] (first compound 2.53 µM), 0.454; in experiment [1] (first compound 8 µM) it was 0.362; in experiment [2] (first compound 0.08 µM), 0.436. The relative viability in experiment [2] (first compound 0.253 µM) stood at 0.414; in experiment [2] (first compound 0.8 µM), 0.366; in experiment [2] (first compound 2.53 µM) it was 0.277; in experiment [2] (first compound 8 µM) it was 0.313; in experiment [3] (first compound 0.08 µM), 0.438; in experiment [3] (first compound 0.253 µM), 0.545. The relative viability in experiment [3] (first compound 0.8 µM) worked out at 0.43; in experiment [3] (first compound 2.53 µM) it was 0.428; in experiment [4] (first compound 0.08 µM), 0.52; in experiment [4] (first compound 0.253 µM) it was 0.498; in experiment [4] (first compound 0.8 µM), 0.418; in experiment [4] (first compound 2.53 µM), 0.375. Further, in experiment [4] (first compound 8 µM), the relative viability stood at 0.293.
